The source of these data is PMC3914206.

Holding throughout (format): binding
The target of assay [1] is T1, panel of 442 kinases (Homo sapiens, UniProt P0C1S8).
T1 construct: purchased KINOMEscan
As to conditions: kinase WEE2; compound concentration 10 µM. An excerpt: (§1) We assessed the selectivity of members of this scaffold using the KINOMEscan methodology across a near comprehensive panel of 442 kinases [[18,27]].

Assay [2] concerns the target T2, panel of 442 kinases (Homo sapiens, UniProt P24941).
T2 construct: purchased KINOMEscan
The following applies: Compound Concentration 10 µM.
Excerpt: as §1

The target of assay [3] is T3, panel of 442 kinases (Homo sapiens, UniProt P42336, E542K).
T3 construct: purchased KINOMEscan
As to conditions: Compound Concentration 10 µM.
Excerpt: as §1

Assay [4] addresses T4, panel of 442 kinases (Homo sapiens, UniProt Q13464).
T4 construct: purchased KINOMEscan
The following applies: Compound Concentration 10 µM.
Excerpt: as §1

T1 sequence (P0C1S8 whole entry): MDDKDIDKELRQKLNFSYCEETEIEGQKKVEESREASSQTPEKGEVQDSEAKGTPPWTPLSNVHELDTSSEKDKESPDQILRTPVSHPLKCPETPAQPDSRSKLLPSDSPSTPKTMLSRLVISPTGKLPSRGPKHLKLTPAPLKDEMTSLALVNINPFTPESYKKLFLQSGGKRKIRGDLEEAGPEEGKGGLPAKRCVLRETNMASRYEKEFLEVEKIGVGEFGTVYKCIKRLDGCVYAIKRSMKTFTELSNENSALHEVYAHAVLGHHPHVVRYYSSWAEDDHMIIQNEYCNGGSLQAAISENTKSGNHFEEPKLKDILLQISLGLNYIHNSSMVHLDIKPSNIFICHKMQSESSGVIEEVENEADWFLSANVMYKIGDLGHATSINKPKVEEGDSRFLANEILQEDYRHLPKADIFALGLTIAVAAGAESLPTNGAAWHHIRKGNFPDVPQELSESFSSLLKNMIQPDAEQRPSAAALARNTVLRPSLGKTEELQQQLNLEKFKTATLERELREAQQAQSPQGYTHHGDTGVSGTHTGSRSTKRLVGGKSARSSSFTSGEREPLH
T3 sequence (P42336 whole entry E542K): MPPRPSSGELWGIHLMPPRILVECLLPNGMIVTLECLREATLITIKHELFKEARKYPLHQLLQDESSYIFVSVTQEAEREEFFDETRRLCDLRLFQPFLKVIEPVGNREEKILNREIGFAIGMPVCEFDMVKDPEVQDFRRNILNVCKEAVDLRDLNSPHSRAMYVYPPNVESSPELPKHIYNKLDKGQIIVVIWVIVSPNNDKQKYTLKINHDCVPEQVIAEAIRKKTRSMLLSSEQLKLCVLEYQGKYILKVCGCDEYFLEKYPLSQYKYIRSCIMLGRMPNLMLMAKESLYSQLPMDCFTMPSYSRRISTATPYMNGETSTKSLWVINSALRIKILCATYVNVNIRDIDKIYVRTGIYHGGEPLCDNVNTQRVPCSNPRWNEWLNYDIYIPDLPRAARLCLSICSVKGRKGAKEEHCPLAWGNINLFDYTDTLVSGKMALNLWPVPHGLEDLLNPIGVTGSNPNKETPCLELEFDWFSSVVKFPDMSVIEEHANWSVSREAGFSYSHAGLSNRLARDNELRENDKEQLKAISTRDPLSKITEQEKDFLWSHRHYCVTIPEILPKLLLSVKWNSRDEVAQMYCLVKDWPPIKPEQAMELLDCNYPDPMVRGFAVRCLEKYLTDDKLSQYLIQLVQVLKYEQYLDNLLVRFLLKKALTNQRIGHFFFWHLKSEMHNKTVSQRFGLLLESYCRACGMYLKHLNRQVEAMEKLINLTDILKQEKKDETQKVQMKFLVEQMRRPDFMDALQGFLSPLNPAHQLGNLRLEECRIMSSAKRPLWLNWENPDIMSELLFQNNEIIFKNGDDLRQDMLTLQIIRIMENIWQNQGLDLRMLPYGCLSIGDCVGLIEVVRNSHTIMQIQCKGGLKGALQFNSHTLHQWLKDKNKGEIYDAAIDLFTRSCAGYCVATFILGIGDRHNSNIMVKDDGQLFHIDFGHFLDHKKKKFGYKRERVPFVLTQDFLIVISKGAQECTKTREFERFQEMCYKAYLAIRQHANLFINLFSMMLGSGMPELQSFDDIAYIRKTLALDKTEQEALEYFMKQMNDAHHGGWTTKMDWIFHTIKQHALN
T4 sequence (Q13464 whole entry): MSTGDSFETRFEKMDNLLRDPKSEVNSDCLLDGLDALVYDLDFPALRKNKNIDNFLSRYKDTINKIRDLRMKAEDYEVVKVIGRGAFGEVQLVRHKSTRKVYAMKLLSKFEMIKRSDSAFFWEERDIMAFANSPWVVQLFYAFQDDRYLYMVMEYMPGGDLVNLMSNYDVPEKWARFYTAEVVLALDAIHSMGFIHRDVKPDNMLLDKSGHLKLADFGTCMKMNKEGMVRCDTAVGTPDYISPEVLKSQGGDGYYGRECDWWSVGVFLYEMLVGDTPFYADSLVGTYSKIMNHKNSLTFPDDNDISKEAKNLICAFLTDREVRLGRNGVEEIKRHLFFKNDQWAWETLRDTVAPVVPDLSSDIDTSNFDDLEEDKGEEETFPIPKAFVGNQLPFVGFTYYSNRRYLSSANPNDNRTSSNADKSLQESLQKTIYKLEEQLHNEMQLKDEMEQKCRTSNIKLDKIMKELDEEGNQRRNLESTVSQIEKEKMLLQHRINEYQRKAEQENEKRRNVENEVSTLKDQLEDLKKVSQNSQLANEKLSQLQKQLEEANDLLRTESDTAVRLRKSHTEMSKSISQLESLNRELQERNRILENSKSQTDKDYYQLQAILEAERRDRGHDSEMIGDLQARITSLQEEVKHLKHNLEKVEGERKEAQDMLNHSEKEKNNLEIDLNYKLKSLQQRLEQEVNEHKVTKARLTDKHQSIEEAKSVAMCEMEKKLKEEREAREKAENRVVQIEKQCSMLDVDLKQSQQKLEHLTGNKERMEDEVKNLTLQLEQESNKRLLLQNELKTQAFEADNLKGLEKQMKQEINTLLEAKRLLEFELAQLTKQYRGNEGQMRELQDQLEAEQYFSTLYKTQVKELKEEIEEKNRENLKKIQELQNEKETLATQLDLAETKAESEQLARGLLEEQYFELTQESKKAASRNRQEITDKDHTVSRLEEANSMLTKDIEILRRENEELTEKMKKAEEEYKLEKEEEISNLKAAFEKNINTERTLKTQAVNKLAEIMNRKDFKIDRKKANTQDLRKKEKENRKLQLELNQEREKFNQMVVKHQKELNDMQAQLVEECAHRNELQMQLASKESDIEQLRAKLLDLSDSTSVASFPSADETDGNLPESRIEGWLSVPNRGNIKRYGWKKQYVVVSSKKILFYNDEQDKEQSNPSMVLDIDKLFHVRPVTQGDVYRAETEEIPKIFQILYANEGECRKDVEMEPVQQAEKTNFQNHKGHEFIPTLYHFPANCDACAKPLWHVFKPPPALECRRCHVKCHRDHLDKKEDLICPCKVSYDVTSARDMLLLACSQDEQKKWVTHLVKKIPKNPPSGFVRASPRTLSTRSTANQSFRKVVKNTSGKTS

With `COc1cc(C(=O)N2CCC(N3CCN(C)CC3)CC2)ccc1Nc1ncc2c(n1)N(C1CCCC1)c1ccccc1C(=O)N2C` [Compound 25, 11-cyclopentyl-2-((2-methoxy-4-(4-(4-methylpiperazin-1-yl)piperidine-1-carbonyl)phenyl)amino)-5-methyl-5H-benzo[e]pyrimido[5,4-b][1,4]diazepin-6(11H)-one], on panel of 442 kinases [1], the “% Ctrl, WEE2” value came out at 100 % Ctrl. Besides, the “KINOMEscan: CDK2” value at panel of 442 kinases [2] was 96. At panel of 442 kinases [3], the “KINOMEscan: PIK3CA(E542K)” value was found to be 98. Further, the “KINOMEscan: ROCK1” value on panel of 442 kinases [4] turned out to be 74.

Consider `COc1cc(C(=O)N2CCC(N3CCN(C)CC3)CC2)ccc1Nc1ncc2c(n1)N1CCc3cccc(c31)C(=O)N2C` [Compound 24], for which, at panel of 442 kinases [1], the “% Ctrl, WEE2” value is reported as 100 % Ctrl. Moreover, the “KINOMEscan: CDK2” value at panel of 442 kinases [2] is on record as 95. The “KINOMEscan: ROCK1” value at panel of 442 kinases [4] is reported as 64.

Turning to `COc1cc(C(=O)N2CCC(N3CCN(C)CC3)CC2)ccc1Nc1ncc2c(n1)N(C)c1ccccc1C(=O)N2C` [15 (LRRK2-IN-1)], on panel of 442 kinases [1], the “% Ctrl, WEE2” value was determined as 100 % Ctrl. Besides, on panel of 442 kinases [2], the “KINOMEscan: CDK2” value stood at 100. In addition, on panel of 442 kinases [3], the “KINOMEscan: PIK3CA(E542K)” value was determined as 77. Besides, the “KINOMEscan: ROCK1” value on panel of 442 kinases [4] is on record as 100.

In the case of `CCOc1cc(C(=O)N2CCC(N3CCN(C)CC3)CC2)ccc1Nc1ncc2c(n1)N(C1CCCC1)c1ccccc1C(=O)N2C` [Compound 26], on panel of 442 kinases [1], the “% Ctrl, WEE2” value is 100 % Ctrl. The “KINOMEscan: CDK2” value on panel of 442 kinases [2] was 100. In addition, on panel of 442 kinases [3], the “KINOMEscan: PIK3CA(E542K)” value stood at 100. On panel of 442 kinases [4], the “KINOMEscan: ROCK1” value was found to be 77.
